Data reported in patent US20230227466A1, “SUBSTITUTED THIENOPYRIMIDINES THAT INTERACT WITH THE RAS SUPERFAMILY FOR THE TREATMENT OF CANCERS, INFLAMMATORY DISEASES, RASOPATHIES, AND FIBROTIC DISEASE” (SHY Therapeutics, LLC, priority 2020, published 2023).
Where two headings read alike, the source gives them in different places.

Experiments:
KRas G12C mutant = biological target: T1, KRas G12C mutant (Homo sapiens, UniProt P01116, G12C); test: Ras GTP binding domain inhibition assay (labeled-GTP competition, cell-free)
T1 construct: made in house
How it was run: (§1)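 His-tagged protein immobilized on Ni-coated wells overnight at 4 °C. Compounds (20 μM single point or serial dilution for IC50) incubated 3 h at RT, ± Sos (residues 556-1049, 10-30 μg/mL) during the final hour. Cy3- or Cy5-GTP (100 nM) then added for 45 min; bound label read by fluorescence after washing.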

KRas G12D mutant = biological target: T2, KRas G12D mutant (Homo sapiens, UniProt P01116, G12D); test: as above
T2 construct: made in house
How it was run: as §1

KRas Q61H mutant = biological target: T3, KRas Q61H mutant (Homo sapiens, UniProt P01116, Q61H); test: as above
T3 construct: made in house
How it was run: as §1

Kinetic solubility assay = format: physicochemical; conditions: phosphate-buffered saline pH 7.4 with 2% DMSO, aqueous buffer, kinetic from dmso stock; pH 7.4 PBS + 2% DMSO, 25° C., two hours; effective range approximately 2-400 μM
Method: Equipment: Water purification system Millipore Milli-Q Gradient A10 (Millipore, France); Thermomixer R Block, 1.5 ml (Eppendorf, Germany; Cat #5355); Matrix Multichannel Electronic Pipette 2-125 μL, 5-250 μL, 15-1250 μL (Thermo Scientific, USA; Cat ##2011, 2012, 2004); SpectraMax Plus Microplate Reader (Molecular Devices, USA; Product #02196); Multi-Well Plate Vacuum Manifold (Pall Corporation, USA; Product #5014); and Vacuum pump (Millipore, USA; Model #XX5500000)
Analytical System: The measurements were performed using SpectraMax Plus reader in UV-Vis mode. Acquisition and analysis of the data were performed using SoftMax Pro v.5.4 (Molecular Devices) and Excel 2010 data analysis software.
Methods: Briefly, using a 20 mM stock solution of the compound in 100% DMSO dilutions were prepared to a theoretical concentration of 400 μM in duplicates in phosphate-buffered saline pH 7.4 (138 mM NaCl, 2.7 mM KCl, 10 mM K-phosphate) with 2% final DMSO. The experimental compound dilutions in PBS were further allowed to equilibrate at 25° C. on a thermostatic shaker for two hours and then filtered through HTS filter plates using a vacuum manifold. The filtrates of test compounds were diluted 2-fold with acetonitrile with 2% DMSO before measuring.
In parallel, compound dilutions in acetonitrile/PBS (1:1) were prepared to theoretical concentrations of 0 μM (blank), 10 μM, 25 μM, 50 μM, 100 μM, and 200 μM with 2% final DMSO to generate calibration curves. Ondansetron was used as reference compound to control proper assay performance. 200 μL of each sample was transferred to 96-well plate and measured in 200-550 nm range with 5 nm step.
The concentrations of compounds in PBS filtrate are calculated using a dedicated Microsoft Excel calculation script. Proper absorbance wavelengths for calculations are selected for each compound manually based on absorbance maximums (absolute absorbance unit values for the minimum and maximum concentration points within 0-3 OD range). Each of the final datasets is additionally visually evaluated by the operator and goodness of fit (R2) is calculated for each calibration curve. […] This method is not suitable for liquid (at 25° C.) substances (were not present among the tested compounds). Table 3A provides the kinetic solubility for some of the exemplified compounds.

KRas wild type = KRas wild type (Homo sapiens, UniProt P01116); test: Ras GTP binding domain inhibition assay (labeled-GTP competition, cell-free); parameters: made in house
How it was run: as §1

Rac-1 = Rac-1 (Homo sapiens, UniProt P63000); test: as above; parameters: made in house
How it was run: as §1

Rho-A = Rho-A (Homo sapiens, UniProt P61586); test: as above; parameters: made in house
How it was run: as §1

[1] = with SOS, read-out: KRas G12C mutant + SOS: % inh.
[2] = without SOS, read-out: KRas G12C mutant: % inh.
[3] = with SOS, read-out: KRas G12D mutant + SOS: % inh.
[4] = without SOS, read-out: KRas G12D mutant: % inh.
[5] = with SOS, read-out: KRas Q61H mutant + SOS: % inh.
[6] = without SOS, read-out: KRas Q61H mutant: % inh.
[7] = with SOS, read-out: KRas wild type + SOS: % inh.
[8] = without SOS, read-out: KRas wild type: % inh.
[9] = without SOS, read-out: Rac-1: % inh.
[10] = without SOS, read-out: Rho-A: % inh.

Structure (SMILES)	inhibition at 20 µM (KRas G12C mutant; [1])	inhibition at 20 µM (KRas G12C mutant; [2])	inhibition at 20 µM (KRas G12D mutant; [3])	inhibition at 20 µM (KRas G12D mutant; [4])	inhibition at 20 µM (KRas Q61H mutant; [5])	inhibition at 20 µM (KRas Q61H mutant; [6])	solubility kinetic at 2 h (Kinetic solubility assay)	inhibition at 20 µM (KRas wild type; [7])	inhibition at 20 µM (KRas wild type; [8])	inhibition at 20 µM (Rac-1; [9])	inhibition at 20 µM (Rho-A; [10])	IC50 (KRas Q61H mutant; with SOS)	inhibition at 20 µM (Rac-1; with SOS, read-out: Rac-1 + SOS: % inh.)	inhibition at 20 µM (Rho-A; with SOS, read-out: Rho-A + SOS: % inh.)
COc1cc(Nc2nc(-c3nccn3C)nc3sc(-c4ccn(C(C)C)n4)c(C)c23)ncn1 [Compound 66, 6-(1-Isopropyl-1H-pyrazol-3-yl)-N-(6-methoxypyrimidin-4-yl)-5-methyl-2-(1-methyl-1H-imidazol-2-yl)thieno[2,3-d]pyrimidin-4-amine]	26 to 50%	26 to 50%	51 to 75%	76 to 100%	26 to 50%	51 to 75%	4 µM	51 to 75%	51 to 75%	51 to 75%	76 to 100%	–	–	–
CO[C@@H]1CC[C@H](Nc2nc(-c3nccn3C)nc3sc(-c4ccn(C(C)C)n4)c(-c4ccccc4)c23)C1 [Example 4, 6-(1-isopropyl-1H-pyrazol-3-yl)-N-((1S,3R)-3-methoxycyclopentyl)-2-(1-methyl-1H-imidazol-2-yl)-5-phenylthieno[2,3-d]pyrimidin-4-amine]	76 to 100%	51 to 75%	51 to 75%	51 to 75%	76 to 100%	51 to 75%	5 µM	76 to 100%	51 to 75%	1 to 25%	26 to 50%	1 to 4.99 µM	26 to 50%	26 to 50%
